Results: patent US20070128217A1 (priority 2003, published 2007)

Tests used:
[1] = system: rabbit serum obtained by immunizing a rabbit with the SARS-CoV strain Frankfurt 1; type: binding; design: Binding of a rabbit serum to linear peptides / Binding of a rabbit serum to looped peptides / Rabbit serum linear peptides / Rabbit serum looped peptides / Binding of a rabbit serum to linear peptides of protein N of SARS-CoV Urbani (Rabbit serum linear peptides) / Binding of a rabbit serum to looped/cyclic peptides of protein N of SARS-CoV Urbani (Rabbit serum looped peptides): unit not given here
[2] = system: recombinant human anti-SARS-CoV antibody 03-018; type: binding; design: Binding of antibody 03-018 to linear peptides of the N protein of SARS-CoV Urbani / Binding of antibody 03-018 to looped/cyclic peptides of the N protein of SARS-CoV Urbani: unit not given here
[3] = system: control sera (pooled serum of ten healthy LUMC hospital workers; commercial negative donor pooled serum from the Dutch bloodbank); type: binding, human; design: Binding of Control serum LUMC to linear peptides / Binding of Control serum Blood-bank to linear peptides / Binding of Control serum LUMC to looped peptides / Binding of Control Serum Blood-Bank to Looped peptides / Binding of Control serum LUMC to linear peptides of the protein M of SARS-CoV Urbani / Binding of Control serum Blood-bank to linear peptides of the protein M of SARS-CoV Urbani / Binding of Control serum LUMC to looped peptides of the protein M of SARS-CoV Urbani / Binding of Control Serum Blood-Bank to Looped peptides of the protein M of SARS-CoV Urbani: unit not given here

Row | Sequence | Binding of a rabbit serum to linear peptides of protein N of SARS-CoV Urbani (Rabbit serum linear peptides) [1] | Binding of a rabbit serum to looped/cyclic peptides of protein N of SARS-CoV Urbani (Rabbit serum looped peptides) [1] | Binding of antibody 03-018 to linear peptides of the N protein of SARS-CoV Urbani [2] | Binding of antibody 03-018 to looped/cyclic peptides of the N protein of SARS-CoV Urbani [2] | Binding of Control Serum Blood-Bank to Looped peptides [3] | Binding of Control serum Blood-bank to linear peptides [3] | Binding of Control serum LUMC to linear peptides [3] | Binding of Control serum LUMC to looped peptides [3] | Recognition of the peptide by the rabbit serum [1]
1 | RMASGGGETALALLL | 0.2 | 0.4 | 0.1 | 0.3 | 0.8 | 0.6 | 0.5 | 0.8 | –
2 | RQKRTATKQYNVTQA | – | – | 0.1 | 0.2 | 0.9 | 0.9 | 0.8 | 0.8 | recognized
3 | SPARMASGGGETALA | 0.2 | 0.0 | 0.1 | 0.1 | 0.1 | 0.9 | 0.8 | 0.2 | –
4 | TATKQYNVTQAFGRR | – | – | 0.1 | 0.3 | 0.9 | 0.8 | 0.8 | 1.0 | recognized
5 | TTLPKGFYAEGSRGG | 0.2 | 0.4 | 0.1 | 0.2 | 0.6 | 0.6 | 0.7 | 0.5 | –
